Results taken from US8802597B2, “Herbicidal pyrimidines” (E I du Pont de Nemours and Company, priority 2003, dated 2014).
Where two headings read alike, the source gives them in different places.

What was measured:
Format in all cases: in vivo
[1] = system: cocklebur (Xanthium strumarium); assay: Test C pre/postemergence; settings: Xanthium strumarium; for pest or weed control at 8 g/ha: 8 g ai/ha; for pest or weed control at 16 g/ha: 16 g ai/ha; for pest or weed control at 31 g/ha: 31 g ai/ha; for pest or weed control at 62 g/ha: 62 g ai/ha
Method in brief: (§1)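 Applications: preemergence onto seeded soil and postemergence onto 1- to 4-leaf seedlings, compound carried in non-phytotoxic solvent plus surfactant. Kept in greenhouse 12 to 14 days. Scored visually relative to untreated controls, 0 (no effect) to 100 (complete control).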

[2] = system: johnsongrass (Sorghum halepense); assay: Test C pre/postemergence; settings: Sorghum halepense; for pest or weed control at 8 g/ha: 8 g ai/ha; for pest or weed control at 16 g/ha: 16 g ai/ha; for pest or weed control at 31 g/ha: 31 g ai/ha; for pest or weed control at 62 g/ha: 62 g ai/ha
Method in brief: as §1

[3] = system: pigweed (Amaranthus retroflexus); assay: Test C pre/postemergence; settings: Amaranthus retroflexus; for pest or weed control at 8 g/ha: 8 g ai/ha; for pest or weed control at 16 g/ha: 16 g ai/ha; for pest or weed control at 31 g/ha: 31 g ai/ha; for pest or weed control at 62 g/ha: 62 g ai/ha
Method in brief: as §1

[4] = system: kochia (Kochia scoparia); assay: Test C pre/postemergence; settings: Bassia scoparia; for pest or weed control at 8 g/ha: 8 g ai/ha; for pest or weed control at 16 g/ha: 16 g ai/ha; for pest or weed control at 31 g/ha: 31 g ai/ha; for pest or weed control at 62 g/ha: 62 g ai/ha
Method in brief: as §1

[5] = system: crabgrass (Digitaria sanguinalis); assay: Test C pre/postemergence; settings: Digitaria sanguinalis; for pest or weed control at 8 g/ha: 8 g ai/ha; for pest or weed control at 16 g/ha: 16 g ai/ha; for pest or weed control at 31 g/ha: 31 g ai/ha; for pest or weed control at 62 g/ha: 62 g ai/ha
Method in brief: as §1

[6] = system: morningglory (Ipomoea spp.); assay: Test A pre/postemergence; settings: Ipomoea, 240 h, read-out: Plant response rating, Morningglory; for pest or weed control at 125 g/ha: 125 g ai/ha; for pest or weed control at 500 g/ha: 500 g ai/ha
Method in brief: (§2)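 Greenhouse herbicide test with preemergence directed soil spray and postemergence foliar spray at the 1- to 2-leaf stage; visual control rating 0–100 versus untreated at ~10 days.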

[7] = system: barnyardgrass (Echinochloa crus-galli); assay: Test A pre/postemergence; settings: Echinochloa crus-galli, 240 h, read-out: Plant response rating, Barnyardgrass; for pest or weed control at 125 g/ha: 125 g ai/ha; for pest or weed control at 500 g/ha: 500 g ai/ha
Method in brief: as §2

[8] = system: giant foxtail (Setaria faberi); assay: Test A pre/postemergence; settings: Setaria faberi, 240 h, read-out: Plant response rating, Foxtail, Giant; for pest or weed control at 125 g/ha: 125 g ai/ha; for pest or weed control at 500 g/ha: 500 g ai/ha
Method in brief: as §2

[9] = system: redroot pigweed (Amaranthus retroflexus); assay: Test A pre/postemergence; settings: Amaranthus retroflexus, 240 h, read-out: Plant response rating, Pigweed; for pest or weed control at 125 g/ha: 125 g ai/ha; for pest or weed control at 500 g/ha: 500 g ai/ha
Method in brief: as §2

[10] = system: velvetleaf (Abutilon theophrasti); assay: Test A pre/postemergence; settings: Abutilon theophrasti, 240 h, read-out: Plant response rating, Velvetleaf; for pest or weed control at 125 g/ha: 125 g ai/ha; for pest or weed control at 500 g/ha: 500 g ai/ha
Method in brief: as §2

[11] = system: crabgrass (Digitaria sanguinalis); assay: Test A pre/postemergence; settings: Digitaria sanguinalis, 240 h, read-out: Plant response rating, Crabgrass; for pest or weed control at 125 g/ha: 125 g ai/ha; for pest or weed control at 500 g/ha: 500 g ai/ha
Method in brief: as §2

[12] = post-emergence, Postemergence, read-out: Plant response rating (scale of 0 to 100), Cocklebur
[13] = pre-emergence, Preemergence, scale 0 to 100, 0 no effect, 100 complete control, read-out: Plant response rating, Cocklebur
[14] = post-emergence, Postemergence, read-out: Plant response rating (scale of 0 to 100), Johnsongrass
[15] = pre-emergence, Preemergence, scale 0 to 100, 0 no effect, 100 complete control, read-out: Plant response rating, Johnsongrass
[16] = post-emergence, Postemergence, read-out: Plant response rating (scale of 0 to 100), Pigweed
[17] = pre-emergence, Preemergence, scale 0 to 100, 0 no effect, 100 complete control, read-out: Plant response rating, Pigweed
[18] = post-emergence, Postemergence, read-out: Plant response rating (scale of 0 to 100), Kochia
[19] = pre-emergence, Preemergence, scale 0 to 100, 0 no effect, 100 complete control, read-out: Plant response rating, Kochia
[20] = post-emergence, Postemergence, read-out: Plant response rating (scale of 0 to 100), Crabgrass
[21] = pre-emergence, Preemergence, scale 0 to 100, 0 no effect, 100 complete control, read-out: Plant response rating, Crabgrass
[22] = post-emergence, Postemergence, 0 to 100 scale (0 no effect, 100 complete control)
[23] = pre-emergence, Preemergence, 0 to 100 scale where 0 is no effect and 100 is complete control, approximately ten days

Nc1nc(-c2ccc(Br)cc2)nc(C(=O)O)c1Cl [Compound 95, 6-amino-2-(4-bromophenyl)-5-chloro-4-pyrimidinecarboxylic acid]
pest or weed control at 8 g/ha ([1]; post-emergence, Postemergence, scale 0 to 100, read-out: Plant response rating, Cocklebur): 100% | pest or weed control at 16 g/ha [1, 12]: 100% | pest or weed control at 31 g/ha [1, 12]: 100% | pest or weed control at 62 g/ha [1, 12]: 100% | pest or weed control at 8 g/ha ([1]; pre-emergence, Preemergence, scale 0 to 100 (0 no effect, 100 complete control), read-out: Plant response rating, Cocklebur): 0% | pest or weed control at 16 g/ha [1, 13]: 0% | pest or weed control at 31 g/ha [1, 13]: 0% | pest or weed control at 62 g/ha [1, 13]: 60% | pest or weed control at 8 g/ha ([2]; post-emergence, Postemergence, scale 0 to 100, read-out: Plant response rating, Johnsongrass): 55% | pest or weed control at 16 g/ha [2, 14]: 70% | pest or weed control at 31 g/ha [2, 14]: 75% | pest or weed control at 62 g/ha [2, 14]: 90% | pest or weed control at 8 g/ha ([2]; pre-emergence, Preemergence, scale 0 to 100 (0 no effect, 100 complete control), read-out: Plant response rating, Johnsongrass): 0% | pest or weed control at 16 g/ha [2, 15]: 50% | pest or weed control at 31 g/ha [2, 15]: 60% | pest or weed control at 62 g/ha [2, 15]: 80% | pest or weed control at 8 g/ha ([3]; post-emergence, Postemergence, scale 0 to 100, read-out: Plant response rating, Pigweed): 90% | pest or weed control at 16 g/ha [3, 16]: 95% | pest or weed control at 31 g/ha [3, 16]: 100% | pest or weed control at 62 g/ha [3, 16]: 100% | pest or weed control at 8 g/ha ([3]; pre-emergence, Preemergence, scale 0 to 100 (0 no effect, 100 complete control), read-out: Plant response rating, Pigweed): 50% | pest or weed control at 16 g/ha [3, 17]: 90% | pest or weed control at 31 g/ha [3, 17]: 100% | pest or weed control at 62 g/ha [3, 17]: 100% | pest or weed control at 8 g/ha ([4]; post-emergence, Postemergence, scale 0 to 100, read-out: Plant response rating, Kochia): 90% | pest or weed control at 16 g/ha [4, 18]: 95% | pest or weed control at 31 g/ha [4, 18]: 95% | pest or weed control at 62 g/ha [4, 18]: 95% | pest or weed control at 8 g/ha ([4]; pre-emergence, Preemergence, scale 0 to 100 (0 no effect, 100 complete control), read-out: Plant response rating, Kochia): 0% | pest or weed control at 16 g/ha [4, 19]: 0% | pest or weed control at 31 g/ha [4, 19]: 40% | pest or weed control at 62 g/ha [4, 19]: 45% | pest or weed control at 8 g/ha ([5]; post-emergence, Postemergence, scale 0 to 100, read-out: Plant response rating, Crabgrass): 75% | pest or weed control at 16 g/ha [5, 20]: 75% | pest or weed control at 31 g/ha [5, 20]: 80% | pest or weed control at 62 g/ha [5, 20]: 80% | pest or weed control at 8 g/ha ([5]; pre-emergence, Preemergence, scale 0 to 100 (0 no effect, 100 complete control), read-out: Plant response rating, Crabgrass): 0% | pest or weed control at 16 g/ha [5, 21]: 0% | pest or weed control at 31 g/ha [5, 21]: 30% | pest or weed control at 62 g/ha [5, 21]: 35% | pest or weed control at 125 g/ha [6, 22]: 75% | pest or weed control at 500 g/ha [6, 22]: 80% | pest or weed control at 125 g/ha [6, 23]: 80% | pest or weed control at 500 g/ha [6, 23]: 85% | pest or weed control at 125 g/ha [7, 22]: 75% | pest or weed control at 500 g/ha [7, 22]: 90% | pest or weed control at 125 g/ha [7, 23]: 20% | pest or weed control at 500 g/ha [7, 23]: 80% | pest or weed control at 125 g/ha [8, 22]: 85% | pest or weed control at 500 g/ha [8, 22]: 85% | pest or weed control at 125 g/ha [8, 23]: 65% | pest or weed control at 500 g/ha [8, 23]: 90% | pest or weed control at 125 g/ha [9, 22]: 85% | pest or weed control at 500 g/ha [9, 22]: 95% | pest or weed control at 125 g/ha [9, 23]: 95% | pest or weed control at 500 g/ha [9, 23]: 100% | pest or weed control at 125 g/ha [10, 22]: 90% | pest or weed control at 500 g/ha [10, 22]: 95% | pest or weed control at 125 g/ha [10, 23]: 55% | pest or weed control at 500 g/ha [10, 23]: 95% | pest or weed control at 125 g/ha [11, 22]: 70% | pest or weed control at 500 g/ha [11, 22]: 80% | pest or weed control at 125 g/ha [11, 23]: 65% | pest or weed control at 500 g/ha [11, 23]: 85%
